Test results as given in US6911477B2, “Muscarinic receptor agonists” (Pfizer Inc., priority 1996, dated 2005).
Structures can show the parent of a compound that is named as a salt.

target: T1, human m2 receptor (Homo sapiens, UniProt P08172); test: inhibition of forskolin-stimulated cAMP accumulation, m2 receptor; format: cell-based; details: standard agonist, typical value, 5 μM forskolin
T1 sequence (P08172 1-466): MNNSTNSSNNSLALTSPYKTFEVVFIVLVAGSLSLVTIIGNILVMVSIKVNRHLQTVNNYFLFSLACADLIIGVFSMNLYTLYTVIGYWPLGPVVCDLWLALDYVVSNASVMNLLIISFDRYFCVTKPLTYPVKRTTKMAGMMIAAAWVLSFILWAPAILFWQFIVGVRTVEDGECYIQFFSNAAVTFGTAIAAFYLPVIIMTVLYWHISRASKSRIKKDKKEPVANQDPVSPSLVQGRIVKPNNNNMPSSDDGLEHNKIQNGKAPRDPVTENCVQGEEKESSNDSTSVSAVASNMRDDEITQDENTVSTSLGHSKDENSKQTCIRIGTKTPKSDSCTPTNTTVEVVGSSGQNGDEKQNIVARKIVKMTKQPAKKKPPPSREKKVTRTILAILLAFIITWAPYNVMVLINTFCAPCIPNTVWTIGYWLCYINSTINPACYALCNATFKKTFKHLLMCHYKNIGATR
From the text: (§1) Activity of the compounds of formula I for muscarinic receptors can be determined according to the following protocol. Chinese hamster ovary cells (CHO-K1) stably transformed to express human m1-m5 receptors can be obtained from Dr. Tom Bonner (Laboratory of Cell Biology, National Institute of Mental Health, Building 36, Rm 3A-17, National Institute of Health, Bethesda, Md. 20892). Cells are maintained in Dulbecco's Modified Eagle Medium containing 10% fetal calf serum and harvested at confluence by brief incubation in Ca^++/Mg^++-free phosphate-buffered saline containing 4 mM EDTA.
(§2) Functional responses at m2 and m4 receptors can be determined by measuring inhibition of forskolin-stimulated cAMP accumulation. Harvested cells are preincubated (15 minutes at 20-22° C.) with 3-isobutyl-1-methyl-xanthine (IBMX; 0.2 mM) and then incubated (10 minutes at 20-22° C.) in a HEPES-buffered Krebs solution with test compounds in the presence of 5 μM forskolin. The reaction is stopped by the addition of 10 N acetic acid and the cAMP content of dried supernatants is determined using a scintillation proximity assay (Amersham).

Row | inhibition of the forskolin-stimulated cAMP levels | SMILES
1 | 60-80% | C[N+](C)(C)CCOC(N)=O [Carbachol]

target: T2, human m4 receptor (Homo sapiens, UniProt P08173); test: inhibition of forskolin-stimulated cAMP accumulation, m4 receptor; format: cell-based; details: standard agonist, typical value, 5 μM forskolin
T2 construct: host or cells: CHO-K1
T2 sequence (P08173 1-479): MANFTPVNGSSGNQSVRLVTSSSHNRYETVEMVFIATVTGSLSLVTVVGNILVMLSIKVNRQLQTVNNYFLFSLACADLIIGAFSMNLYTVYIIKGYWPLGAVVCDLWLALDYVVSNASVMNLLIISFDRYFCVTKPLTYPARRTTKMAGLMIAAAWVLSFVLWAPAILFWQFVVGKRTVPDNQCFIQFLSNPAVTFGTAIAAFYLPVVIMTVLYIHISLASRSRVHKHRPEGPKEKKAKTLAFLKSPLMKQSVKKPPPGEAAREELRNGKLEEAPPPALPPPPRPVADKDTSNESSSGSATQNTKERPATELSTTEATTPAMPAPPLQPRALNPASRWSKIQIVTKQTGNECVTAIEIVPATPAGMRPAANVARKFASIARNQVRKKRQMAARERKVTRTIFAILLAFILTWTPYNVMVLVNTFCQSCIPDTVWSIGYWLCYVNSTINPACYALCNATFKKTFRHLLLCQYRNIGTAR
From the text: as §1, §2

Row | inhibition of the forskolin-stimulated cAMP levels | SMILES
2 | 60-80% | C[N+](C)(C)CCOC(N)=O [Carbachol]

system: not given; test: not given; details: not given

Row | SMILES | melting point
3 | CC1CCN(C(=Nc2ccccc2)NC(=Nc2ccccc2)c2ccccc2)CC1 (as salt: hydroiodid) [Example 21, N-[(4-methyl-piperidin-1-yl)-phenylimino-methyl]-N′-phenyl-benzamidine] | 192 to 195 °C (dec.)
4 | c1ccc(N=C(NC(=Nc2ccccc2)N2CCCCCCC2)c2ccccc2)cc1 (as salt: hydroiodid) [Example 22, N-(azocan-1-yl-phenylimino-methyl)-N′-phenyl-benzamidine] | 252 to 253 °C (dec.)
5 | CC1CCCN(C(=Nc2ccccc2)NC(=Nc2ccccc2)c2ccccc2)C1 (centres unmarked) (as salt: hydroiodid) [Example 23, N-[(3-methyl-piperidin-1-yl)-phenylimino-methyl]-N′-phenyl-benzamidine] | 179 to 182 °C (dec.)
6 | Cc1cccc(C)c1C(=Nc1ccccc1)NC(=Nc1ccccc1)N1CCCC1 (as salt: hydroiodid) [Example 31, N-[(2,6-dimethyl-phenyl)-phenylimino-methyl]-N′-phenyl-pyrrolidine-1-carboxamidine] | 255 to 257 °C
7 | CC1CCCCN1C(=Nc1ccccc1)NC(=Nc1ccccc1)c1ccccc1 (centres unmarked) (as salt: hydroiodid) [Example 32, N-[(2-methyl-piperidin-1-yl)-phenylimino-methyl]-N′-phenyl-benzamidine] | 181 to 183 °C
8 | CC1CCCCN1C(=Nc1ccccc1)NC(=Nc1ccccc1)c1ccccc1 (centres unmarked) (as salt: hydroiodid) [Example 33, N-[(2-methyl-piperidin-1-yl)-phenylimino-methyl]-N′-phenyl-benzamidine] | 180 to 182 °C
9 | c1ccc(N=C(NC(=Nc2ccccc2)N2CCCCO2)c2ccccc2)cc1 (as salt: nitrate) [Example 4, N-([1,2]Oxazinan-2-yl-phenylimino-methyl)-N′-phenyl-benzamidine] | 187 to 190 °C
10 | OC1CCCN(C(=Nc2ccccc2)NC(=Nc2ccccc2)c2ccccc2)C1 (centres unmarked) (as salt: nitrate) [Example 38, N-[(3-hydroxy-piperidin-1-yl)-phenylimino-methyl]-N′-phenyl-benzamidine] | 189 to 192 °C
11 | Fc1ccccc1C(=Nc1ccccc1)NC(=Nc1ccccc1)N1CCCC1 (as salt: nitrate) [Example 39, N-[(2-fluoro-phenyl)-phenylimino-methyl]-N′-phenyl-pyrrolidine-1-carboxamidine] | 194 to 196 °C
12 | Cc1ccccc1C(=NC(=Nc1ccccc1)C1(C)CCCCC1)Nc1ccc(F)cc1 [Example 11, N-(4-Fluoro-phenyl)-2-methyl-N′-[(1-methyl-cyclohexyl)-phenylimino-methyl]-benzamidine] | 210 to 211 °C

The remaining lines, values ahead:

Row | melting point | SMILES
13 | 209 to 210 °C (dec.) | Cc1ccccc1C(=NC(=Nc1ccncc1)N1CCCCC1C)Nc1ccc(F)cc1 (centres unmarked) (as salt: nitrate) [Example 40, N-(4-fluoro-phenyl)-2-methyl-N′-[(2-methyl-piperidin-1-yl)-(pyridin-4-ylimino)-methyl]-benzamidine]
14 | 163 to 165 °C (dec.) | CC1CCCCN1C(N=C(Nc1ccc(F)cc1)c1c(F)cccc1F)=Nc1ccccc1 (centres unmarked) (as salt: nitrate) [Example 44, 2,6-difluoro-N-(4-fluoro-phenyl)-N′-[(2-methyl-piperidin-1-yl)-phenylimino-methyl]-benzamidine]
15 | 171 to 173 °C | CC1CCCCN1C(N=C(Nc1ccc(F)cc1)c1c(F)cccc1F)=Nc1ccc(F)cc1 (centres unmarked) (as salt: nitrate) [Example 51, 2,6-difluoro-N-(4-fluoro-phenyl)-N′-[(4-fluoro-phenylimino)-(2-methyl-piperidin-1-yl)-methyl]-benzamidine]
16 | 172 to 174 °C | CC1CCCC(C)N1C(=Nc1ccc(F)cc1)NC(=Nc1ccc(F)cc1)c1c(F)cccc1F (centres unmarked) (as salt: nitrate) [Example 52, N-[(2,6-dimethyl-piperidin-1-yl)-(4-fluoro-phenylimino)-methyl]-2,6-difluoro-N′-(4-fluoro-phenyl)-benzamidine]
17 | 171 to 173 °C | Fc1ccc(N=C(NC(=Nc2ccccc2)N2CCCCCC2)c2c(F)cccc2F)cc1 (as salt: nitrate) [Example 56, N-(azepan-1-yl-phenylimino-methyl)-2,6-difluoro-N′-(4-fluoro-phenyl)-benzamidine]
18 | 184 to 186 °C | C(=C(Nc1ccccc1)c1ccccc1)C(=Nc1ccccc1)N1CCCC1 (as salt: nitrate) [Example 87, (3-phenylimino-3-pyrrolidin-1-yl-1-phenyl-propenyl)-phenylamine]
19 | 151 to 153 °C | Cc1ccccc1C(=CC(=Nc1ccccc1)N1CCCCO1)Nc1ccc(F)cc1 (as salt: nitrate) [Example 91, (3-phenylimino-3-[1,2]oxazinan-2-yl-1-o-tolyl-propenyl)-(4-fluoro-phenyl)-amine]
20 | 82 to 84 °C | Fc1ccc(NC(=CC(=NC2CC2)N2CCCCO2)c2ccccc2)cc1 (as salt: nitrate) [Example 110, (3-cyclopropylimino-3-[1,2]oxazinan-2-yl-1-phenyl-propenyl)-(4-fluoro-phenyl)-amine]
